Some test systems named below: NCI/ADR-RES ovarian; EKVX NSCLC; M14 melanoma; PC-3 prostate; CCRF-CEM leukemia; A549 NSCLC; BT-549 breast; MDA-MB-231 breast; NCI-H23 lung; MOLT-4 leukemia.
Test in all cases: NCI anticancer screen, dose series, 48 h

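96-well plates; 48 h exposure; 5 concentrations. Endpoints by linear interpolation between flanking doses. Not reached: highest tested concentration assigned. GI50 marks 50% less growth. TGI marks complete inhibition of growth.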

For the compound `COc1cc2ncn(-c3cc(OCc4ccccc4C(F)(F)F)c(C(N)=O)s3)c2cc1OC`, the GI50 in the experiment on NCI/ADR-RES ovarian is 0.15 µM; in the experiment on EKVX NSCLC it was 3.69 µM; in the experiment on M14 melanoma, 0.141 µM; in the experiment on PC-3 prostate it was 0.214 µM; with CCRF-CEM leukemia, 0.0841 µM; in the experiment with A549 NSCLC it was 0.204 µM. Besides, the GI50 in the experiment with BT-549 breast is 1.64 µM; in the experiment on MDA-MB-231 breast, 0.27 µM; with NCI-H23 lung, 0.16 µM; in the experiment on MOLT-4 leukemia it was 0.13 µM. Further, the TGI with NCI/ADR-RES ovarian, in the experiment with EKVX NSCLC, in the experiment on M14 melanoma, in the experiment on PC-3 prostate, in the experiment with CCRF-CEM leukemia and with A549 NSCLC was over 25 µM in each case. Also, the TGI in the experiment with BT-549 breast was over 19.5 µM; with MDA-MB-231 breast it was over 25 µM; with NCI-H23 lung, over 22.2 µM; in the experiment with MOLT-4 leukemia, over 25 µM.
In the case of `C=C1C(=O)OC2CC(C)C(/C=C/C(C)=O)=CCC12` (stereo not given), the TGI with NCI/ADR-RES ovarian, with EKVX NSCLC, in the experiment on M14 melanoma, in the experiment with PC-3 prostate, in the experiment with CCRF-CEM leukemia and in the experiment on A549 NSCLC was over 100 µM in each case. The TGI in the experiment on BT-549 breast, in the experiment with MDA-MB-231 breast, in the experiment on NCI-H23 lung and with MOLT-4 leukemia was over 100 µM in each case.
Regarding `CC(=O)ON(OCc1ccc2ccccc2c1)C(C)=O`, the GI50 in the experiment with NCI/ADR-RES ovarian was over 100 µM; in the experiment on EKVX NSCLC, 32.3 µM; in the experiment on M14 melanoma, over 100 µM; with PC-3 prostate it was over 100 µM; with CCRF-CEM leukemia it was over 100 µM; in the experiment with A549 NSCLC, over 100 µM. For the same compound, the GI50 with BT-549 breast, with MDA-MB-231 breast, in the experiment with NCI-H23 lung and in the experiment with MOLT-4 leukemia was over 100 µM throughout. In addition, the TGI with NCI/ADR-RES ovarian, in the experiment on EKVX NSCLC, with M14 melanoma, in the experiment with PC-3 prostate, in the experiment with CCRF-CEM leukemia and in the experiment on A549 NSCLC was over 100 µM each time. The TGI in the experiment on BT-549 breast, with MDA-MB-231 breast, in the experiment with NCI-H23 lung and in the experiment with MOLT-4 leukemia was over 100 µM throughout.
On to `O=[N+]([O-])c1ccccc1N=Nc1c(O)[nH]c2c(Cl)cccc12`, for which the TGI in the experiment on NCI/ADR-RES ovarian is over 60.5 µM; with EKVX NSCLC, over 61.5 µM; in the experiment with M14 melanoma it was over 100 µM; in the experiment with PC-3 prostate it was over 100 µM; in the experiment with CCRF-CEM leukemia it was over 100 µM; in the experiment with A549 NSCLC it was over 58.6 µM. In addition, the TGI in the experiment on BT-549 breast is over 82.3 µM; in the experiment with MDA-MB-231 breast, 23.4 µM; in the experiment with NCI-H23 lung, over 71.3 µM; in the experiment on MOLT-4 leukemia it was over 100 µM.
Consider `COc1ccc2nc3ccccc3c(NCCNCCO)c2c1`, for which the GI50 in the experiment with NCI/ADR-RES ovarian is 5.04 µM; with EKVX NSCLC, 1.43 µM; in the experiment on M14 melanoma, 0.709 µM; in the experiment on PC-3 prostate, 0.554 µM; with CCRF-CEM leukemia it was 0.597 µM; in the experiment on A549 NSCLC, 0.673 µM. Further, the GI50 is 1.01 µM with BT-549 breast, 0.932 µM in the experiment on MDA-MB-231 breast, 0.762 µM in the experiment on NCI-H23 lung and 0.393 µM in the experiment on MOLT-4 leukemia. Besides, the TGI was over 89 µM in the experiment with NCI/ADR-RES ovarian; 7.32 µM with EKVX NSCLC; 2.24 µM in the experiment on M14 melanoma; 3.79 µM with PC-3 prostate; 6.78 µM in the experiment with CCRF-CEM leukemia; 7.81 µM in the experiment on A549 NSCLC. In addition, the TGI with BT-549 breast was determined as 4.29 µM; with MDA-MB-231 breast it was 3.72 µM; with NCI-H23 lung, 3.53 µM; in the experiment on MOLT-4 leukemia it was 3.77 µM.
For `O=C1CCC(c2ccccc2)=NN1c1nc2ccccc2s1`, the TGI in the experiment with NCI/ADR-RES ovarian is 76.6 µM; in the experiment with EKVX NSCLC, over 100 µM; with M14 melanoma, over 100 µM; in the experiment with PC-3 prostate it was 69.2 µM; in the experiment with CCRF-CEM leukemia, 71.8 µM; in the experiment with A549 NSCLC, over 100 µM. The TGI in the experiment on BT-549 breast is 82.5 µM; with MDA-MB-231 breast it was 55.9 µM; with NCI-H23 lung it was over 84.6 µM; in the experiment on MOLT-4 leukemia it was over 94.4 µM.
On to `O=C1/C(=C/c2ccc(Cl)cc2)CCC1CNc1ccc(Cl)cc1` (stereo not given), for which the TGI came to 67.1 µM with NCI/ADR-RES ovarian; 38.4 µM in the experiment with EKVX NSCLC; 22.8 µM in the experiment with M14 melanoma; 45.6 µM in the experiment with PC-3 prostate; 15.5 µM in the experiment on CCRF-CEM leukemia; 38.1 µM in the experiment on A549 NSCLC. Further, the TGI in the experiment on BT-549 breast worked out at 65.3 µM; in the experiment on MDA-MB-231 breast, 20.5 µM; with NCI-H23 lung, 55.1 µM; in the experiment on MOLT-4 leukemia, 27.5 µM.
Consider `CCn1c(-c2nonc2N)nc2ccccc21`, for which the GI50 in the experiment with NCI/ADR-RES ovarian was over 25 µM; in the experiment on EKVX NSCLC, 20.9 µM; in the experiment on M14 melanoma, over 25 µM; in the experiment on PC-3 prostate, over 25 µM; in the experiment with CCRF-CEM leukemia, over 25 µM; with A549 NSCLC, over 25 µM. The GI50 in the experiment with BT-549 breast, in the experiment with MDA-MB-231 breast, with NCI-H23 lung and in the experiment with MOLT-4 leukemia was over 25 µM throughout. The TGI in the experiment with NCI/ADR-RES ovarian, in the experiment on EKVX NSCLC, with M14 melanoma, in the experiment on PC-3 prostate, with CCRF-CEM leukemia and in the experiment with A549 NSCLC was over 25 µM each time. For the same compound, the TGI in the experiment with BT-549 breast, in the experiment with MDA-MB-231 breast, in the experiment with NCI-H23 lung and in the experiment on MOLT-4 leukemia was over 25 µM each time.

The values above are taken from PubChem BioAssay (NCI).
